Measured values: patent US20090215783A1, “COMPOSITION FOR INDUCTION OR INHIBITION OF STEM CELL DIFFERENTIATION” (CHOONGWAE PHARMA CORPORATION, priority 2006, published 2009)

Assays:
[1] = system: hBMMSC; assay: Cell proliferation assay (CellTiter 96) in hBMMSC; assay type: cell-based, human; conditions: treated alone; for cell proliferation: 20 μM
Method: Cell proliferation assay: To investigate the cytotoxicity of the test compounds for hBMMSC, hBMMSC were exposed to the test compounds for 6-7 days at the same condition above (method b and c). Cell proliferation was assessed using CellTiter 96 Aqueous One Solution (Promega, #G3581). Absorbance at 490 nm of each well was determined with a microplate reader (Molecular Device) and % growth inhibition was calculated compared with control.

[2] = system: human bone marrow derived-mesenchymal stem cells (hBMMSC); assay: Osteogenesis modulating activity with osteogenic induction cocktails (ALP activity, mineralization); assay type: cell-based; conditions: for mineralization of hBMMSC: co-treated with osteogenic induction cocktails (OIC); for stimulation of mineralization at various concentrations: even at the 0.5 μM
Method: Cell culture: Human bone marrow derived-mesenchymal stem cells (hBMMSC) were isolated from normal subjects.
Osteogenesis modulating activity of test compounds with induction media: hBMMSC were culture with culture media containing osteogenic induction cocktails (OIC, 0.1 μM dexamethasone, 50 μM ascorbate-2-phosphate, 10 mM b-glycerophosphate). Four to five days after incubation, Alkaline phosphatase (ALP) activity of cell lysates were measured by colorimetry. For the determination of mineralization within the cells, Von Kossa staining or Alizarin Red S assay was performed 10-14 days after incubation.

[3] = system: human bone marrow derived-mesenchymal stem cells (hBMMSC); assay: Osteogenesis modulating activity assay by test compound alone (ALP activity); assay type: cell-based; conditions: for fold induction at 20 µM: Homo sapiens, 168 h, 20 μM test compound alone, six to seven days, read-out: Osteogenesis: fold change of ALP activity compared with DMSO control
Method in brief: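 hBMMSC from normal subjects were treated with compound at 20 μM final (0.01% DMSO) at 37° C, 5% CO2, with medium and compound renewed every two days. Alkaline phosphatase activity in cell lysates was measured colorimetrically after six to seven days.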

[4] = system: MyoD and Myf5 protein expression in C2C12 cells; assay: Expression of MyoD and Myf5 (Western immunoblot) in C2C12 cells; assay type: cell-based, Murine; conditions: for expression of Myf5 compared with DMSO control, dose dependence: 5 and 10 μM; for Myf-5 expression on co-treatment with Wnt1 conditioned medium: co-treated with Wnt1
Method: (§1) a. Cell culture: Murine C2C12 myoblastic cell line (satellite cells from thigh muscle) purchased from American Tissue Type Collection (ATCC) was maintained in exponential phase of growth using 10% FBS/DMEM with Glutamax designed as GM (growth medium) supplied with antibiotic solution (Penicillin and Streptomycin) in a controlled humidified air atmosphere supplied with 5% CO2, at 37° C. in a multiwell or tissue culture Petri dishes (Corning-Costar Inc U.S.A.).
(§2) b. Induction of differentiation and test compound treatment: Every other day the cells were washed twice with phosphate buffered saline (PBS) and medium was changed until they reached 100% confluence. Confluent cells (myoblasts of the same cell density fully covering surface dish) were then guided to post mitotic status, and differentiation and fusion were initiated by replacing GM with 2% (v/v) horse serum HS/DMEM designed as DM (differentiating medium). In the above mentioned conditions C2C12 myoblasts easily and fully differentiate into myotubes, therefore we could follow up modifications of differentiation process during 5 subsequent days. During the study freshly prepared media without or with the experimental factors were changed every 24 hours. Test compounds were dissolved in DMSO and diluted with culture medium. Test compounds (if not specified, 10 μM was used, final DMSO 0.1% v/v) or DMSO (0.1% v/v) were added to the medium.
c. Expression of MyoD and Myf5: Cells were lysed and protein expression levels were analyzed by Western-immunoblot analysis, as described in the literature (Verma et al., British J Pharmacol, 2004, 143, 106-13). Equal amount of protein samples were resolved by sodium dodecyl sulphate poly-acrylamide gel electrophoresis (SDS-PAGE) and transferred to nitrocellulose membranes. The membranes were blocked with 5% bovine serum albumin (BSA) and incubated with the indicated primary antibodies for 12˜h: polyclonal C20 antion MyoD (from Santa-Cruz, Biotechnology, Santa Cruz, Calif.) diluted 1/400, polyclonal anti-Myf-5 directed against the COOH-terminal portion of the protein. After several washes in PBS, membranes were incubated with chemiluminescence reagents.

[5] = system: Mouse embryonic stem (ES) cells, TC1; assay: Cardiomyogenesis modulating activity assay (alpha-MHC promoter EGFP, embryoid bodies, FACS/fluorescence microscopy); assay type: cell-based; conditions: for Cardiomyogenesis: fold change of EGFP expression level compared with DMSO control: embryoid bodies treated for 5 days
Method in brief: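 Mouse TC1 ES cells carrying an alpha-MHC promoter-EGFP reporter were formed into embryoid bodies (~600 cells, 2 days hanging drop, 2 days suspension), plated, then exposed to compounds (final 0.05% DMSO) for 5 days. Cardiomyogenesis assessed by EGFP via FACS after trypsin dissociation, fluorescence microscopy, and daily counts of beating EBs.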

[6] = system: β-catenin/TCF transcription; assay: TopFlash reporter gene assay in SW480 cells; assay type: cell-based; conditions: Homo sapiens; SW480 cells transfected with β-catenin/TCF luciferase construct; 24 hours treatment; dual luciferase assay; read-out: IC50, inhibition of β-catenin/TCF reporter gene construct
Method: FIG. 2. Compound A (Serial No. 111 in Table 2) inhibits β-catenin/TCF transcription. […] SW480 cells (10^5) were transfected with β-catenin/TCF luciferase construct. Cells were treated with Compound A (1-50 μM). 24 hours after the treatment lysates were prepared and subjected to dual luciferase assay.
FIG. 3. Compound B (Serial No. 10 in Table 2) inhibits β-catenin/TCF transcription. […] SW480 cells ([…]) were transfected with β-catenin/TCF luciferase construct. Cells were treated with Compound B (1-50 μM). 24 hours after treatment lysates were prepared and subjected to dual luciferase assay.
SW480 cells were transfected using Superfect™ transfection reagent (Qiagen, 301307). Cells were trypsinized briefly 1 day before transfection and plated on 6 well plate (5×10^5 cells/well) so that they were 50-80% confluent on the day of transfection.
Four microgram (TOPFlash) and one microgram (pRL-null) of DNAs were diluted in […] of serum-free medium, and 30 μl of Superfect™ transfection reagent was added. The DNA-Superfect mixture was incubated at room temperature for 15 min, and then, 1 ml of 10% FBS DMEM was added to this complex for an additional 3 hours of incubation. While complexes were forming, cells were washed with PBS twice without antibiotics.
The DNA-Superfect™ transfection reagent complexes were applied to the cells before incubating at 37° C. at 5% CO2 for 3 hours. […]

[7] = system: ALP mRNA in hBMMSC; assay: RT-PCR of alkaline phosphatase (ALP) mRNA in hBMMSC; assay type: cell-based, human; conditions: compound treatment for 4 days
Method: RT-PCR. To analyze the mRNA levels for Alkaline phosphatase (ALP), total RNA was isolated using Trizol (Invitrogen-GIBCO-BRL, Baltimore, Md.) from hBMMSC with or without compound treatment for 4 days. 2 μg RNA was reverse transcribed in a total volume of 20 μl with random hexamer (50 ng), and using the Superscript II reverse transcription system (Invitrogen-GIBCO-BRL), according to manufacturer's guidelines. PCR was carried out in a 50 μl volume containing 5 μl cDNA, 100 pmol primers, 100 μM dNTPs, 1×Taq buffer and 1.5 mM MgCl2. Reaction mixtures were heated to 80° C. for 10 min, after which Taq was added. cDNAs were amplified for 25 ([…]) or 15 (GAPDH) cycles. One round of amplification consisted of 1 min at 94° C., 2 min at 60° C., and 2 min at 72° C., with a final extension time of 10 min at 72° C. The PCR products were resolved and visualized by electrophoresis in a 2% gel, stained with ethidium bromide. ALP PCR primers used were, 5′-[…]-3′ and 5′-[…]-3′. Primer pairs for GAPDH were 5′-[…]-3′ and 5′-[…]-3′. A housekeeping gene, GADPH was used as a control.

[8] = system: ANP and Nkx2.5 mRNA in the ES cells; assay: Real time RT-PCR of cardiomyogenesis marker genes ANP and Nkx2.5; assay type: cell-based, mouse; conditions: ES cells treated for 7 and 10 days
Method: d. Real time RT-PCR: To analyze the mRNA levels of cardiomyogenesis marker genes, Atrial Natriuretic Peptide (ANP) and Nk×2.5, total RNA was isolated using Trizol (Invitrogen-GIBCO-BRL, Baltimore, Md., USA) from stem cells with or without Compound E treatment for 7 days and 10 days. Relative expression level of each mRNA was measured.

[9] = system: C2C12 myoblasts; assay: Myogenesis (myotube formation) in C2C12 myoblast cells; assay type: cell-based, Murine; conditions: C2C12 cells grown in GM
Method: as §1
as §2, with “Confluent cells (myoblasts of the same cell density fully covering surface dish) were then guided to post mitotic status, and differentiation and fusion were initiated by replacing GM with 2% (v/v) horse serum HS/DMEM designed as DM (differentiating medium).” left out

SMILES | IC50 [6] | ALP mRNA expression [7] | fold induction at 20 µM ([3]; hBMMSC) | expression of Myf5 compared with DMSO control, dose dependence [4] | Myf-5 expression on co-treatment with Wnt1 conditioned medium [4] | Cardiomyogenesis: fold change of EGFP expression level compared with DMSO control ([5]; FACS) | cell proliferation [1] | mineralization of hBMMSC [2] | stimulation of mineralization at various concentrations [2] | ALP level enhanced ([3]; 20 μM, treated alone to hBMMSC) | other results
CN(C)c1c(Cl)cccc1CN1C[C@H]2N(C(=O)CN(C)N2C(=O)NCc2ccccc2)[C@@H](Cc2ccc(O)cc2)C1=O [#10] | 6.98 µM |  | 0.23 | dose-dependently decreased | abolished Myf-5 enhancing activity of Wnt1 | 0.26 fold |  |  |  |  | inhibition at 20 µM ([1]; Homo sapiens, read-out: cell proliferation inhibited): 51%; ALP level reduced compared with vehicle control group ([2]; 20 μM, co-treated with osteogenic induction cocktails): 80%; cellular alkaline phosphatase activity ([3]; 20 μM, hBMMSC): strongly inhibited; ALP level reduced ([3]; 20 μM, treated alone to hBMMSC): 77%; Myf-5 expression, compound without Wnt1 [4]: reduced; Myf5 expression on co-treatment of CBP ([4]; co-treatment of CBP): not changed; Myf5 expression on co-treatment of p300 ([4]; co-treatment of p300): rescues the decrease of Myf5 expression; expression of fluorescence, ratio Compound : DMSO control (control = 1) ([5]; 10 μM for 5 days, mouse embryonic stem cells): 0.26
O=C1C(Cc2ccc(OCc3ccccc3)cc2)N2C(=O)CN(Cc3ccc(F)cc3)N(C(=O)NCc3ccccc3)C2CN1Cc1cccc(C(F)(F)F)c1 (stereo not shown) [#66] |  | increased | 2.02 |  |  | 3.13 fold | 83% | strongly induced mineralization | osteogenesis inducing activity | 202% | 
O=C1[C@H](Cc2ccc(F)c(F)c2)N2C(=O)CN(Cc3ccc(F)cc3)N(C(=O)NCc3ccccc3)[C@H]2CN1Cc1cccc(C(F)(F)F)c1 [#71] |  |  |  |  |  | 4.63 fold |  |  |  |  | expression level of ANP mRNA compared with DMSO control [8]: strongly increased; expression level of Nkx2.5 mRNA compared with DMSO control [8]: strongly increased; expression of fluorescence under the fluorescence microscope compared with DMSO control ([5]; 10 μM, Day 5): significantly enhanced; fold increase of alpha-MHC positive cells compared to DMSO treated EB ([5]; 10 μM, FACS): 4.6 fold; cell population expressing fluorescence (alpha-MHC positive) ([5]; 10 μM, FACS analysis of embryoid bodies): 2.50%; cardiomyogenesis differentiation promoting effect at low concentration ([5]; even at the 0.3 μM): distinctive; cardiomyogenesis differentiation promoting activity (EGFP expression), concentration dependence ([5]; various concentrations): concentration-dependent
O=C1[C@@H](Cc2ccc(O)cc2)N2C(=S)CCN(C(=O)NCc3ccccc3)[C@@H]2CN1Cc1cccc2ccccc12 [#112] |  |  |  | dose-dependently increased | further enhanced | 0.95 fold |  |  |  |  | Myf5 protein expression level [4]: significantly increased; MyoD protein expression level [4]: significantly increased; myotube formation in growth medium (GM) [9]: extensive myotube formation

Now from value to molecule, other results behind:

IC50 [6] | ALP mRNA expression [7] | SMILES | fold induction at 20 µM ([3]; hBMMSC) | expression of Myf5 compared with DMSO control, dose dependence [4] | Myf-5 expression on co-treatment with Wnt1 conditioned medium [4] | Cardiomyogenesis: fold change of EGFP expression level compared with DMSO control ([5]; FACS) | cell proliferation [1] | mineralization of hBMMSC [2] | stimulation of mineralization at various concentrations [2] | ALP level enhanced ([3]; 20 μM, treated alone to hBMMSC) | other results
 | increased | O=C1[C@H](Cc2ccc(Cl)cc2)N2C(=O)CN(Cc3ccccc3)N(C(=O)NCc3ccccc3)[C@H]2CN1CCc1ccc(Cl)cc1 [#82] | 2 |  |  | 0.97 fold | 127% | strongly induced mineralization | osteogenesis inducing activity | 200% | 
1.46 µM |  | CN1CC(=S)N2[C@H](Cc3ccc(O)cc3)C(=O)N(Cc3cccc4ccccc34)C[C@H]2N1C(=O)NCc1ccccc1 [#111] |  |  |  | 0.10 fold |  |  |  |  | 
